Legend:
NO production of HSMC = test: NO production, DAF-2 fluorescence assay, HSMC; format: cell-based, human
Source text: (§1) In addition to its vasodilating feature, NO has antiatherosclerotic properties, such as prevention of platelet aggregation, leukocyte adhesion, smooth muscle cell proliferation, and the expression of genes involved in atherogenesis. In this study, the human aortic smooth muscle cells (HSMC) and human aortic endothelia cells (HEC) were used to determine if avenanthramides can influence the NO production level. Synthetic Av-C was used in this experiment. The quantification of NO production was performed by the 4,5 diaminofluorescein (DAF-2) fluorescence assay. Briefly, cells were seeded into 24-well plate and let them grow to 90% confluent condition. The cells were pretreated with different concentrations of Avenanthramide for 24 h. The culture medium was then changed to PBS containing 100 μM L-arginine, 1 μM bradykinin and L-NAME. Then 0.1 μM of DAF-2 was added to each well. After another 2 h of incubation, 200 μL of supernatants were transferred to black microplates and the fluorescence was measured with a fluorescence microplate reader calibrated for excitation at 485 nm and emission at 538 nm.

pRb = pRb phosphorylation Western blot, FBS-stimulated A10 cells; format: cell-based, rat; conditions: 10% FBS, 20 h
Procedure: (§2) Protein from 5×10^4 cells was subjected to electrophoresis on 7.5-10% SDS-polyacrylamide gels and electro-transferred to nirocellulose membrane. Nonspecific binding was blocked by incubating with Tris-buffered saline (TBS) [137 mM NaCl, and 15 mM Tris-HCl (pH 7.6)] containing 5% non-fat milk (w/v) for 1 h at room temperature and then probed with primary antibody against p53, p21, p27, cyclin D1 and pRb overnight. After washing in TBS-Tween 20 buffer (0.075% v/v), the membranes were incubated with horseradish peroxidase-conjugated anti-IgG antibody. Proteins bound to the primary antibodies were detected with ECL detection reagents.
Based on the above findings that treatment of A10 cells with Avn arrests the cell cycle at G1 phase, the effect of Avn treatment on cell cycle regulatory molecules involved in G1 phase of the cell cycle progression were analyzed. pRB, the product of the retinoblastoma tumor suppressor gene, is a major cell cycle regulator and its hyperphosphorylation (ppRb) is necessary for G1-S phase transition. To elucidate the mechanism by which Avn inhibits the cell cycle progression, the changes in pRB phosphorylation status were measured using anti-phospho-pRb specific antibody. FIG. 11 is a Western blot showing the effects of Avn on pRB phosphorylation. Av inhibits pRb phosphorylation in A10 cells stimulated with FBS. […]

eNOS mRNA = eNOS mRNA expression level by real time PCR; format: cell-based, human
Procedure: Since NO is catalyzed by endothelium nitric oxide synthases (eNOS), the role of Avenanthramide in induction of eNOS expression level by real time PCR was examined. Total mRNA was extracted using RNesy Mini Kit (QIAGEN) and quantified spectrophotometrically at 260 nm. Twenty μl of first-strand cDNA was synthesized from 1.5 μg of total RNA by using 300 ng of random hexanucleotide primers and 200u of SuperScript II (Invitrogen) at 42 C. for 1 h followed by heat inactivation of reverse transcriptase at 70 C. for 15 min. Fifty μL of PCR reaction mixture contained 5 μL cDNA, up- and down-stream primers (200 nM) and 25 μL of SYBR Green was set up into the ABI 4400 to perform the amplification for 40 cycles with denaturation at 95 C. for 30 sec, annealing at 60 C. for 1 min and extension at 72 C. for 1 min. Primers designed based on the published gene sequences were synthesized from Tufts University Core Facility. The primer sequences used for eNOS were:
Beta-actin mRNA expression level as an internal control. […] The enhancing effect is dose-dependent and the pattern is consistent with the results from NO production (FIG. 3).

NO production of HAEC = test: NO production, DAF-2 fluorescence assay, HAEC; format: cell-based, human; conditions: 120 μM, 24 h
Source text: as §1

[1] = test system: A10 cells (rat embryonic aortic smooth muscle cell); test: Cell number counting, A10 cells; format: cell-based
Procedure: (§3) HSMC or A10 cells (rat embryonic aortic smooth muscle cell) were seeded into 6-well plate at a density of 0.5×10^4/well. Four hr later 120 μM of avenanthramide were added to each well. At different time points (2d, 3d and 4d) the cells were trypsinzied and the total cell number were counted using a hemocytometer. Trypan blue exclusion test was carried out to determine the cell viability.

p27Kip1 = p27Kip1 expression Western blot, A10 cells; format: cell-based, rat; conditions: 10% FBS, 20 h
Procedure: as §2
Cyclin-dependent kinase (cdk) inhibitors play important roles in cell cycle progression. P21cip1 is the main target of p53 medicated cell cycle inhibition. […] The effect of Avn on this CDK inhibitor p21cip1 protein expression was determined by Western blotting. A10 cells were synchronized by growning in FBS-free medium for 24 h. The cells were then stimulated with 10% FBS in the absence or presence of different concentrations of substantially purified Avn-C. After 20 h, total cell lysates were prepared and subjected to SDS-PAGE followed by Western blot analysis to detect p21cip and p27kip. β-Actin expression was used as loading control. […]

cyclin D1 = test: Cyclin D1 expression Western blot, FBS-stimulated A10 cells; format: cell-based, rat; conditions: 10% FBS, 20 h, dose-dependent
Procedure: as §2
Cells were treated with 10% FBS in the presence and absence of substantially purified Avn-C as described above. 20 h after the addition of serum to quiescent A10 cells, the amount of cyclin D1 was measured by Western blotting using polyclonal anti-cyclin D1 antibody. β-Actin expression level was used as a loading control.

[2] = test system: human aortic smooth muscle cells (HSMC); test: Cell number counting, HSMC; format: cell-based; conditions: 120 μM
Procedure: as §3

## O=C(/C=C/c1ccc(O)c(O)c1)Nc1ccc(O)cc1C(=O)O [Avn-C, Avenanthramide C]
NO production of HSMC; 80 μM, HASMC
  increase of NO production: 2.1 fold
NO production of HSMC; 120 μM, 24 h, HSMC
  increase in NO production compared with control: 3.0 folds
pRb
  expression of the total amount of pRb: did not change
pRb; different concentrations
  serum-induced pRB phosphorylation: dose-dependently inhibited
eNOS mRNA; 80 μM, HASMC
  increase of eNOS mRNA expression level: 3.5 fold
eNOS mRNA; Av. Con. 40 μM
  Fold Change, eNOS mRNA expression level: 1.56
  ΔCt eNOS-β-actin: 7.0 ± 0.51
eNOS mRNA; Av. Con. 80 μM
  Fold Change, eNOS mRNA expression level: 2.39
  ΔCt eNOS-β-actin: 6.41 ± 0.48
NO production of HAEC
  increase in NO production compared with control: 8.8 folds
[1]; 120 μM
  reduction in cell proliferation: 50%
[1]; A10, 120 μM
  doubling time: more than 48 hr
p27Kip1
  p27Kip1 protein expression: no significant effect
Cyclin D1
  FBS-induced cyclin D expression: attenuate
[2]; 4 days
  inhibition of cell growth: more than 50%
[2]; HSMC
  doubling time: more than 48 hr
